These results are taken from patent US9187526B2, “Peptide based inhibition of caPCNA interaction in cancer” (priority 2006, dated 2015).

Like-named read-outs stand apart in the source and are kept apart here. Where no end group is shown, it is not given here.

For data set [1], the system named is breast cancer cells. The experiment in a line: Flow-cytometric analysis of breast cancer cells treated with peptide-containing liposomes (propidium iodide / annexin V). It is filed as cell-based. As to the method: Exponentially growing breast cancer cells were grown in culture media to 50% of confluence (FIG. 1). The media was then changed and liposomes that were prepared from transfection reagent (PJR) were incubated with the cells in fresh media for an additional 24 hours prior to performing flow-cytometric analysis of the treated cells.
Liposomes contained either the carboxyl region of the p21waf1 protein, and/or the caPCNA antigenic site peptide (LGIPEQEY) (SEQ ID NO: 1). After 24 hours, the cells were stained with propidium iodide and fluorescently labeled annexin V antibody. Healthy growing cells were not permeable to the antibody as shown in lower left panel of FIG. 1, while permeabilized healthy cells susceptible to the transfection reagent, but still growing, were stained with propidium iodide. Cells staining with the annexin V antibody indicate some level of damage associated with the induction of apoptotic cells (lower right quadrant, FIG. 1), and/or cells that had died from either apoptosis or necrosis (upper right quadrant, FIG. 1). […] Cells treated with only the transfection reagent slightly affected the condition of the cells and lead to a slight increase in the number of apoptotic and necrotic cells. […] In addition, approximately 5-7% of the remaining cells appeared to be undergoing apoptosis and was slated to die.

Data set [2] relates to U937 leukemia cells. The data set can be described thus: Cytotoxicity in U937 leukemia cell cultures, liposome-mediated peptide transfer, flow cytometry with propidium iodide and annexin V. Format: cell-based. The source says: Peptide fragments derived from the protein Proliferating Cell Nuclear Antigen (PCNA) are identified herein that have the ability to act, in conjunction with DNA damaging agents (e.g., doxorubicin), to enhance the therapeutic effects of such agents to treat a variety of cancer cells. The peptides are derived from the amino acid sequence within PCNA, for example, encompassing amino acids 126-133. This sequence appears to be uniquely exposed in cancer cells, but not non-cancer cells. By preventing PCNA-binding proteins, including XPG, from binding directly to caPCNA in cancer cells the effects of chemotherapeutic drugs including DNA damaging agents are enhanced. […] Exponentially growing U937 leukemia cell cultures in tissue culture media were used. A liposome mediated protein transfer technique was used wherein the caPCNA peptide (126-133) and doxorubicin were encapsulated in liposomes and added to the cell cultures at 10 μM. […] This approach produced over a 50% killing of the cultured cells within 24 hours that was peptide/drug specific, and not due to liposome mediated cytotoxicity.
As a positive control, these leukemia cells were also incubated for several hours (either 4 or 24 hours) with a peptide derived from the p21waf protein, and as a negative control, a peptide derived from the yeast myosin protein. […] Cell killing vs. cell damage was assessed by flow cytometry using propidium iodide and annexin V staining.

The subject of data set [3] is cancer cells. The data set can be described thus: Incubation of RYIRS-tagged caPCNA-derived peptide with cancer cells in vitro (DMSO or liposome uptake). It is filed as cell-based. The note with it: with doxorubicin. The procedure: The peptides disclosed herein are synthesized using standard peptide synthesis procedures and equipments or can be obtained commercially (e.g., United Biochemical Research Co., Seattle, Wash.). […] Uptake of this peptide was initiated by incubation of this peptide with the cancer cells in the presence of dimethyl sulfoxide (DMSO) in either phosphate buffered saline (PBS) or culture media containing 0.2-2% DMSO, without serum for about 4-24 hours. Uptake of this peptide was also efficiently mediated by encapsulation of the peptide in a liposome formulation and subsequent incubation with the cancer cells at 37° C. for about 4-24 hours.

Data set [4] relates to caPCNA binding to caPCNA antibody (caPCNAab). The data set can be described thus: Competition ELISA: caPCNA captured by plate-bound caPCNA antibody (caPCNAab), detected with C20 antibody. Set-up: species or system human. The note with it: increasing amounts of peptide incubated simultaneously with purified caPCNA. As to the method: The wells are washed and then incubated with a goat anti-PCNA antibody (C20) that recognizes the C-terminal 20 amino acids of PCNA. Bound C20 antibody is visualized with an alkaline phosphatase conjugated anti-goat IgG antibody, and bound antibody complex is visualized with […], and quantified by spectrophotometry. The competition experiments shown in this study involve the simultaneous incubation of the ca(cs)PCNA with increasing amounts of the antigenic peptide fragment of caPCNA (referred to as B1 or the PCNA aa126-133 peptide) in this assay.
The assay described in FIG. 5 was used to test the specificity of the antibody combining site for the epitope defined by PCNA aa126-133 (FIG. 6). The ELISA assay was performed as described in aim 1, however, either the B1 peptide or a peptide sequence (H-Ser-Ala-Cys-Glu-Gln-IIe-Leu-Lys-Asp-Thr-OH) (SEQ ID NO: 28) taken from within the yeast myosin protein was used to compete for the antibody in the presence of purified caPCNA.
The ELISA described herein was used to monitor the ability of two peptides to disrupt caPCNA binding to the bound caPCNA antibody. One peptide (H-[…]OH) (SEQ ID NO: 29) corresponding to the p21cip/waf1 proteins site of interaction with PCNA was evaluated in this assay, and is shown to have no effect on the binding of caPCNA to the bound caPCNA antibody in this ELISA assay (FIG. 7). […] Therefore, the XPG peptide interacts with its recognized PCNA binding site in order to block binding of the PCNA protein to the caPCNA antibody. This happens if the epitope recognized by the antibody was masked by specifically binding this XPG peptide.
For orientation: An ELISA detects its analyte on a solid surface through an enzyme-linked reagent.

Data set [5] has as its target T1, caPCNA (Homo sapiens, UniProt P12004).
T1 construct: precipitate caPCNA selectively from the MCF7 breast cancer cell extract; endogenous in cells; host or cells: MCF7 cell extract (XPG-GST partner expressed in bacteria)
The experiment in a line: XPG-GST fusion protein immunoprecipitation of PCNA isoforms from MCF7 cell extract, 2D-PAGE Western blot. It is filed as binding. To be noted: 30 μg MCF7 cell extract, 2 h incubation, glutathione agarose beads. An excerpt:
MCF7 cell (human breast adenocarcinoma cell line) extracts were processed for purification of the synthesome. MCF7 derived synthesome was then subjected to chromatography steps on phosphocellulose, phenyl Sepharose, and Q-Sepharose matrices as described in (Malkas, L. and Hickey, R. (1996) The expression, purification and characterization of DNA polymerases involved in papovavirus replication. In: Methods in Enzymol Vol. 275: Viral Polymerases and Related Proteins, Acad. Press (133-167).). The Q-Sepharose eluted fraction containing both the nmPCNA and caPCNA isoforms was then loaded onto a XPG-GST affinity column. The column was eluted and both the column flow-through and eluate were subjected to 2D-PAGE Western blot analysis using PC10 antibody. The PC10 antibody was used at a dilution of 1:1000 in the Western blot analysis.
caPCNA was specifically immunoprecipitated from a MCF7 cell extract using XPG-GST fusion protein (FIG. 3). Thirty microgram samples of MCF7 cell extract were incubated with XPG-GST fusion protein for two hours, followed by incubation with Glutathione agarose beads for one hour to capture the XPG-GST. The mixture was then centrifuged to collect the beads, and the supernatant and the agarose bead pellet containing the XPG-GST PCNA complex were subjected to 2D-PAGE Western blot analysis. The Western blots were then probed using commercially available PC10 antibody.
(In general: In western blotting, separated proteins are transferred to a membrane and probed.)

T1 sequence (P12004 whole entry): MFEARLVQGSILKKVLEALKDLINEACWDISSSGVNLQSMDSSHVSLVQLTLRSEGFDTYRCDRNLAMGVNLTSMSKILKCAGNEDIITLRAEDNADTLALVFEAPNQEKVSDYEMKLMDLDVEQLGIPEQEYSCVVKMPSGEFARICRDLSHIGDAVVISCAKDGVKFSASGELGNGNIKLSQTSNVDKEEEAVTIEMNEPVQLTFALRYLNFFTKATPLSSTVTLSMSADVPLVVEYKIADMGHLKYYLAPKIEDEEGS

Regarding `COc1cccc2c1C(=O)c1c(O)c3c(c(O)c1C2=O)C[C@@](O)(C(=O)CO)C[C@@H]3O[C@H]1C[C@H](N)[C@H](O)[C@H](C)O1` [doxorubicin], the cell killing entry in data set [1] (breast cancer cells, low doses of doxorubicin alone) is “significant level of cell killing”.

On to “LGIPEQEY [caPCNA peptide (126-133), LGIPEQEY]”, for which, in data set [2] (U937 cells, peptide as single agent, liposome encapsulated, 10 μM), the intrinsic cytotoxicity entry is given as “intrinsic cytotoxicity”. Besides, the “increase of the cytotoxicity of doxorubicin” value in data set [2] (U937 cells, peptide plus a range of concentrations of doxorubicin) is recorded as “approximately 3 fold”. The “cytotoxic response (cell killing)” value in data set [1] (breast cancer cells, peptide alone in liposomes, 24 hours) is recorded as “strong cytotoxic response”.

In the case of “LGIPEQEYRYIRS [caPCNA-derived peptide (LGIPEQEY)(RYIRS)]”, in data set [3], the “augmentation of cytotoxic effects of chemotherapeutic agents” value is reported as “augments the cytotoxic effects”.

Regarding “H-Gly-Arg-Lys-Arg-Arg-Gln-Thr-Ser-Met-Thr-Asp-Arg-Tyr-His-Ser-Lys-Arg-Arg-Leu-Ile-Phe-Ser-OH (H-GRKRRQTSMTDRYHSKRRLIFS-OH) [p21cip/waf1 peptide (SEQ ID NO: 29)]”, the “competition with caPCNA for binding to the caPCNA antibody” value (shortened to “competition with caPCNA for binding”) in data set [4] is listed as “no effect”.

Consider “H-Gln-Thr-Gln-Leu-Arg-Ile-Asp-Ser-Phe-Phe-Arg-OH (H-QTQLRIDSFFR-OH) [XPG peptide]”, for which, in data set [4], the “competition with caPCNA for binding” value is reported as “effectively competed”.

“p21 peptide: peptide derived from the p21waf protein (carboxyl region of p21waf1), positive control (GRKRRQTSMTDRYHSKRRLIFS) [reference compound]” had a cell kill in data set [2] (U937 leukemia cells, absence of doxorubicin, incubation 4 or 24 hours) of more than 60%. Also, the “cytotoxic response (cell killing)” value in data set [1] was “induced cell killing”.

Consider “XPG-GST fusion protein: 29 amino acid fragment of the XPG protein coupled to Glutathione-S-transferase, expressed in bacteria (LKQLDAQQTQLRIDSFFRLAQQEKEDAKR; also: fused to glutathione-S-transferase)”, for which the “selective binding/precipitation of caPCNA versus nmPCNA” value in data set [5] was “recognize and precipitate caPCNA selectively”.

With “H-Ser-Ala-Cys-Glu-Gln-IIe-Leu-Lys-Asp-Thr-OH (H-SACEQILKDT-OH) [MAL4]”, in data set [4], the “competition with caPCNA for binding” value is recorded as “does not compete”.
